Reference: patent US11053204B2, “Pyrimidinyloxy benzene derivatives as herbicides” (FMC Corporation, priority 2015, dated 2021)

How the values were obtained:
Assay type in all cases: in vivo
[1] = test system: barnyardgrass (Echinochloa crus-galli); experiment: Test B flooded paddy test, plant response rating; conditions: Echinochloa crus-galli, 312 h; 250 g ai/ha; Flood; scale of 0 to 100 where 0 is no effect and 100 is complete control; 13 to 15 days
Outline: (§1)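 Visual injury ratings against untreated controls, taken 13 to 15 days after compound was added to paddy water standing 3 cm above the soil.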

[2] = test system: rice (Oryza sativa); experiment: Test B flooded paddy test, plant response rating; conditions: Oryza sativa, 312 h; 250 g ai/ha; Flood; scale of 0 to 100 where 0 is no effect and 100 is complete control; 13 to 15 days
Outline: as §1

[3] = test system: sedge, umbrella (small-flower umbrella sedge, Cyperus difformis); experiment: Test B flooded paddy test, plant response rating; conditions: Cyperus difformis, 312 h; 250 g ai/ha; Flood; scale of 0 to 100 where 0 is no effect and 100 is complete control; 13 to 15 days
Outline: as §1

[4] = test system: blackgrass (Alopecurus myosuroides); experiment: Test C preemergence, plant response rating; conditions: Alopecurus myosuroides, pre-emergence, Preemergence
Outline: (§2)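 Pre-emergence: seeds sown in loam soil–sand blend or silt loam and sprayed with test chemicals in a non-phytotoxic solvent mixture with surfactant. Post-emergence: plants 2 to 18 cm (1- to 4-leaf stage) in peat-based potting medium, same formulation. Greenhouse 13 to 15 d; visual rating 0 (no effect) to 100 (complete control) versus controls.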

[5] = test system: corn (Zea mays); experiment: Test C preemergence, plant response rating; conditions: Zea mays, pre-emergence, Preemergence
Outline: as §2

[6] = test system: crabgrass, large (large crabgrass, Digitaria sanguinalis); experiment: Test C preemergence, plant response rating; conditions: Digitaria sanguinalis, pre-emergence, Preemergence
Outline: as §2

[7] = test system: foxtail, giant (giant foxtail, Setaria faberii); experiment: Test C preemergence, plant response rating; conditions: Setaria faberi, pre-emergence, Preemergence
Outline: as §2

[8] = test system: lambsquarters (Chenopodium album); experiment: Test C preemergence, plant response rating; conditions: Chenopodium album, pre-emergence, Preemergence
Outline: as §2

[9] = test system: morningglory (Ipomoea coccinea); experiment: Test C preemergence, plant response rating; conditions: Ipomoea, pre-emergence, Preemergence
Outline: as §2

[10] = test system: nutsedge, yellow (yellow nutsedge, Cyperus esculentus); experiment: Test C preemergence, plant response rating; conditions: Cyperus, pre-emergence, Preemergence
Outline: as §2

[11] = test system: oilseed rape (Brassica napus); experiment: Test C preemergence, plant response rating; conditions: Brassica napus, pre-emergence, Preemergence
Outline: as §2

[12] = test system: ragweed (common ragweed, Ambrosia elatior); experiment: Test C preemergence, plant response rating; conditions: Ambrosia artemisiifolia, pre-emergence, Preemergence
Outline: as §2

[13] = test system: ryegrass, Italian (Italian ryegrass, Lolium multiflorum); experiment: Test C preemergence, plant response rating; conditions: Lolium multiflorum, pre-emergence, Preemergence
Outline: as §2

[14] = test system: soybean (Glycine max); experiment: Test C preemergence, plant response rating; conditions: Glycine max, pre-emergence, Preemergence
Outline: as §2

[15] = test system: velvetleaf (Abutilon theophrasti); experiment: Test C preemergence, plant response rating; conditions: Abutilon theophrasti, pre-emergence, Preemergence
Outline: as §2

[16] = test system: waterhemp (common waterhemp, Amaranthus rudis); experiment: Test C preemergence, plant response rating; conditions: Amaranthus tuberculatus, pre-emergence, Preemergence
Outline: as §2

[17] = test system: wheat (winter wheat, Triticum aestivum); experiment: Test C preemergence, plant response rating; conditions: Triticum aestivum, pre-emergence, Preemergence
Outline: as §2

O=C(OCCCC(F)(F)F)c1c(Br)cccc1Oc1ncc(Cl)cn1 [Compound 20, 4,4,4-trifluorobutyl 2-bromo-6-[(5-chloro-2-pyrimidinyl)oxy]benzoate]
pest or weed control at 250 g/ha [1]: 0% | plant injury at 250 g/ha [2]: 0% | pest or weed control at 250 g/ha [3]: 40% | pest or weed control at 62 g/ha ([4]; 62 g ai/ha, scale of 0 to 100): 85% | pest or weed control at 125 g/ha ([4]; 125 g ai/ha, scale of 0 to 100): 100% | pest or weed control at 16 g/ha ([4]; 16 g ai/ha, scale 0 to 100): 0% | pest or weed control at 31 g/ha ([4]; 31 g ai/ha, scale 0 to 100): 40% | Corn plant response rating (crop injury, 0 = no effect, 100 = complete kill) at 62 g/ha ([5]; 62 g ai/ha, scale of 0 to 100): 0% | Corn plant response rating (crop injury, 0 = no effect, 100 = complete kill) at 125 g/ha ([5]; 125 g ai/ha, scale of 0 to 100): 30% | Corn plant response rating (crop injury, 0 = no effect, 100 = complete kill) at 16 g/ha ([5]; 16 g ai/ha, scale 0 to 100): 0% | Corn plant response rating (crop injury, 0 = no effect, 100 = complete kill) at 31 g/ha ([5]; 31 g ai/ha, scale 0 to 100): 0% | pest or weed control at 62 g/ha ([6]; 62 g ai/ha, scale of 0 to 100): 98% | pest or weed control at 125 g/ha ([6]; 125 g ai/ha, scale of 0 to 100): 100% | pest or weed control at 16 g/ha ([6]; 16 g ai/ha, scale 0 to 100): 5% | pest or weed control at 31 g/ha ([6]; 31 g ai/ha, scale 0 to 100): 50% | pest or weed control at 62 g/ha ([7]; 62 g ai/ha, scale of 0 to 100): 90% | pest or weed control at 125 g/ha ([7]; 125 g ai/ha, scale of 0 to 100): 100% | pest or weed control at 16 g/ha ([7]; 16 g ai/ha, scale 0 to 100): 35% | pest or weed control at 31 g/ha ([7]; 31 g ai/ha, scale 0 to 100): 50% | pest or weed control at 125 g/ha ([8]; 125 g ai/ha, scale of 0 to 100): 90% | pest or weed control at 16 g/ha ([8]; 16 g ai/ha, scale 0 to 100): 0% | pest or weed control at 31 g/ha ([8]; 31 g ai/ha, scale 0 to 100): 5% | pest or weed control at 62 g/ha ([8]; 62 g ai/ha, scale 0 to 100): 10% | pest or weed control at 125 g/ha ([9]; 125 g ai/ha, scale of 0 to 100): 10% | pest or weed control at 16 g/ha ([9]; 16 g ai/ha, scale 0 to 100): 0% | pest or weed control at 31 g/ha ([9]; 31 g ai/ha, scale 0 to 100): 0% | pest or weed control at 62 g/ha ([9]; 62 g ai/ha, scale 0 to 100): 5% | pest or weed control at 125 g/ha ([10]; 125 g ai/ha, scale of 0 to 100): 10% | pest or weed control at 16 g/ha ([10]; 16 g ai/ha, scale 0 to 100): 0% | pest or weed control at 31 g/ha ([10]; 31 g ai/ha, scale 0 to 100): 0% | pest or weed control at 62 g/ha ([10]; 62 g ai/ha, scale 0 to 100): 0% | plant injury at 125 g/ha ([11]; 125 g ai/ha, scale of 0 to 100): 50% | plant injury at 16 g/ha ([11]; 16 g ai/ha, scale 0 to 100): 0% | plant injury at 31 g/ha ([11]; 31 g ai/ha, scale 0 to 100): 0% | plant injury at 62 g/ha ([11]; 62 g ai/ha, scale 0 to 100): 50% | pest or weed control at 125 g/ha ([12]; 125 g ai/ha, scale of 0 to 100): 0% | pest or weed control at 16 g/ha ([12]; 16 g ai/ha, scale 0 to 100): 0% | pest or weed control at 31 g/ha ([12]; 31 g ai/ha, scale 0 to 100): 0% | pest or weed control at 62 g/ha ([12]; 62 g ai/ha, scale 0 to 100): 0% | pest or weed control at 125 g/ha ([13]; 125 g ai/ha, scale of 0 to 100): 70% | pest or weed control at 16 g/ha ([13]; 16 g ai/ha, scale 0 to 100): 0% | pest or weed control at 31 g/ha ([13]; 31 g ai/ha, scale 0 to 100): 0% | pest or weed control at 62 g/ha ([13]; 62 g ai/ha, scale 0 to 100): 30% | plant injury at 125 g/ha ([14]; 125 g ai/ha, scale of 0 to 100): 10% | plant injury at 16 g/ha ([14]; 16 g ai/ha, scale 0 to 100): 0% | plant injury at 31 g/ha ([14]; 31 g ai/ha, scale 0 to 100): 0% | plant injury at 62 g/ha ([14]; 62 g ai/ha, scale 0 to 100): 0% | pest or weed control at 125 g/ha ([15]; 125 g ai/ha, scale of 0 to 100): 50% | pest or weed control at 16 g/ha ([15]; 16 g ai/ha, scale 0 to 100): 0% | pest or weed control at 31 g/ha ([15]; 31 g ai/ha, scale 0 to 100): 0% | pest or weed control at 62 g/ha ([15]; 62 g ai/ha, scale 0 to 100): 5% | pest or weed control at 125 g/ha ([16]; 125 g ai/ha, scale of 0 to 100): 98% | pest or weed control at 16 g/ha ([16]; 16 g ai/ha, scale 0 to 100): 30% | pest or weed control at 31 g/ha ([16]; 31 g ai/ha, scale 0 to 100): 85% | pest or weed control at 62 g/ha ([16]; 62 g ai/ha, scale 0 to 100): 100% | plant injury at 125 g/ha ([17]; 125 g ai/ha, scale of 0 to 100): 5% | plant injury at 16 g/ha ([17]; 16 g ai/ha, scale 0 to 100): 0% | plant injury at 31 g/ha ([17]; 31 g ai/ha, scale 0 to 100): 0% | plant injury at 62 g/ha ([17]; 62 g ai/ha, scale 0 to 100): 0%
